According to article PMC10584170, “Machine learning-based phenotypic imaging to characterise the targetable biology of Plasmodium falciparum male gametocytes for the development of transmission-blocking antimalarials” (PLOS Pathogens, 2023):
Like-named read-outs stand apart in the source and are kept apart here. Each block holds one compound with its values, some of them ahead of it.

Key:
[1] = system: P. falciparum male gametocytes; assay: P. falciparum Dual Gamete Formation Assay (PfDGFA), male readout (exflagellation); type: cell-based, Plasmodium falciparum NF54; conditions: for Activity: hit = >50% inhibition in male or female readout in at least 3 replicates, 0 = no class assigned
Outline: (§1)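 Male and female gamete formation were quantified by microscopy image analysis following 24 h incubation of mature NF54 gametocytes with compound and activation at 28°C with xanthurenic acid.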

[2] = system: P. falciparum female gametocytes; assay: P. falciparum Dual Gamete Formation Assay (PfDGFA), female readout (Pfs25-positive female gametes); type: cell-based, Plasmodium falciparum NF54
Outline: as §1

[3] = 2µM, 24h preincubation with gametocytes prior to induction of gametogenesis, average of replicates
[4] = 2µM, 24h preincubation with gametocytes prior to induction of gametogenesis, replicate R1
[5] = 2µM, 24h preincubation with gametocytes prior to induction of gametogenesis, replicate R4
[6] = 2µM, 24h preincubation, number of replicates with >50% inhibition in the male readout
[7] = 2µM, 24h preincubation with gametocytes prior to induction of gametogenesis, replicate R3
[8] = 2µM, 24h preincubation, number of replicates with >50% inhibition in the female readout
[9] = PfDGFA at 2µM, 24h preincubation with gametocytes, average of replicates
[10] = PfDGFA at 2µM, 24h preincubation with gametocytes, replicate R1
[11] = PfDGFA at 2µM, 24h preincubation with gametocytes, replicate R3
[12] = PfDGFA at 2µM, 24h preincubation with gametocytes, replicate R4
[13] = number of replicates with >50% inhibition in the male readout, 2µM
[14] = number of replicates with >50% inhibition in the female readout, 2µM
[15] = 2µM, 24h preincubation, hits selected on >50% inhibition in the male readout across replicates
[16] = PfDGFA at 2µM, 24h preincubation
[17] = 2µM, 24h preincubation, hits selected on >50% inhibition in the female readout across replicates
[18] = PfDGFA at 2µM, 24h preincubation with gametocytes prior to induction of gametogenesis, replicate R1
[19] = PfDGFA at 2µM, 24h preincubation with gametocytes prior to induction of gametogenesis, replicate R3
[20] = PfDGFA at 2µM, 24h preincubation with gametocytes prior to induction of gametogenesis, replicate R4
[21] = PfDGFA at 2µM, 24h preincubation, average of replicates

Compound: Cl.Cn1ccc(-c2cccc(Nc3ccnc4cc(-c5nccs5)ccc34)c2)n1 [TCMDC-138336]
Average inhibition male (%) [1, 3]: 33.2% | % inhibition male (individual replicates) R1 [1, 4]: 36.9% | % inhibition male (individual replicates) R4 [1, 5]: 5.3% | HitlevelM [1, 6]: 1 | Average inhibition female (%) [2, 3]: 19.1% | % inhibition female (individual replicates) R1 [2, 4]: 19.3% | % inhibition female (individual replicates) R3 [2, 7]: 21.6% | % inhibition female (individual replicates) R4 [2, 5]: 9.3% | HitlevelF [2, 8]: 0

Compound: CN(C)CCNCc1ccc(-c2ccc3c(Nc4ccc(Oc5ccccc5)cc4)ccnc3c2)o1 [TCMDC-138399]
Average inhibition male (%) [1, 9]: 74.5% | % inhibition male (individual replicates) R1 [1, 10]: 82.1% | % inhibition male (individual replicates) R3 [1, 11]: 51.0% | % inhibition male (individual replicates) R4 [1, 12]: 85.6% | HitlevelM [1, 13]: 4 | Average inhibition female (%) [2, 9]: 26.2% | % inhibition female (individual replicates) R1 [2, 10]: 29.8% | % inhibition female (individual replicates) R3 [2, 11]: 23.6% | % inhibition female (individual replicates) R4 [2, 12]: 16.9% | HitlevelF [2, 14]: 0

Compound: CN1CCN(Cc2nc(-c3ccc4c(Nc5ccc(Oc6ccccc6)cc5)ccnc4c3)cs2)CC1 [TCMDC-138409]
Average inhibition male (%) [1, 3]: 49.4% | % inhibition male (individual replicates) R1 [1, 4]: 33.1% | % inhibition male (individual replicates) R3 [1, 7]: 19.5% | % inhibition male (individual replicates) R4 [1, 5]: 56.9% | HitlevelM [1, 15]: 2 | Activity [1, 16]: 0 | Average inhibition female (%) [2, 3]: 17.5% | % inhibition female (individual replicates) R1 [2, 4]: 9.4% | % inhibition female (individual replicates) R3 [2, 7]: 19.5% | % inhibition female (individual replicates) R4 [2, 5]: 18.6% | HitlevelF [2, 17]: 0

Compound: CN1CCN(Cc2nc(-c3ccc4c(Nc5ccc(F)c(O)c5)ccnc4c3)cs2)CC1 [TCMDC-138439]
Average inhibition male (%) [1, 3]: 3.8% | % inhibition male (individual replicates) R1 [1, 4]: -1.6% | % inhibition male (individual replicates) R3 [1, 7]: 1.0% | % inhibition male (individual replicates) R4 [1, 5]: 20.9% | HitlevelM [1, 15]: 0 | Activity [1, 16]: 0 | Average inhibition female (%) [2, 3]: 3.7% | % inhibition female (individual replicates) R1 [2, 4]: 13.1% | % inhibition female (individual replicates) R3 [2, 7]: -10.3% | % inhibition female (individual replicates) R4 [2, 5]: 4.9% | HitlevelF [2, 17]: 0

Compound: CS(=O)(=O)CCNCc1ccc(-c2ccc3c(Nc4ccc(Cl)cc4F)ccnc3c2)o1 [TCMDC-138445]
% inhibition male (individual replicates) R1 [1, 18]: -15.4% | % inhibition male (individual replicates) R3 [1, 19]: 14.3% | % inhibition male (individual replicates) R4 [1, 20]: -10.6% | Average inhibition male (%) [1, 21]: -2.9% | % inhibition female (individual replicates) R1 [2, 18]: 4.7% | % inhibition female (individual replicates) R3 [2, 19]: -15.0% | % inhibition female (individual replicates) R4 [2, 20]: 12.7% | Average inhibition female (%) [2, 21]: -1.7%

Compound: CN(C)CCN(C)Cc1ccc(-c2ccc3c(Nc4ccc(F)cc4Cl)ccnc3c2)o1 [TCMDC-138447]
Average inhibition male (%) [1, 3]: 33.6% | % inhibition male (individual replicates) R1 [1, 4]: 23.0% | % inhibition male (individual replicates) R3 [1, 7]: -2.6% | % inhibition male (individual replicates) R4 [1, 5]: 53.6% | HitlevelM [1, 6]: 2 | Average inhibition female (%) [2, 3]: 19.6% | % inhibition female (individual replicates) R1 [2, 4]: 22.4% | % inhibition female (individual replicates) R3 [2, 7]: -11.7% | % inhibition female (individual replicates) R4 [2, 5]: 48.1% | HitlevelF [2, 8]: 0

Compound: c1ccc(Oc2ccc(Nc3ccnc4cc(-c5cccc(CNCCN6CCOCC6)c5)ccc34)cc2)cc1 [TCMDC-138474]
Average inhibition male (%) [1, 3]: 19.3% | % inhibition male (individual replicates) R1 [1, 4]: 25.4% | % inhibition male (individual replicates) R3 [1, 7]: -12.1% | % inhibition male (individual replicates) R4 [1, 5]: 25.6% | HitlevelM [1, 6]: 0 | Average inhibition female (%) [2, 3]: 29.1% | % inhibition female (individual replicates) R1 [2, 4]: 38.4% | % inhibition female (individual replicates) R3 [2, 7]: 13.4% | % inhibition female (individual replicates) R4 [2, 5]: 18.2% | HitlevelF [2, 8]: 0

Compound: CN1CCN(Cc2cccc(-c3ccc4c(Nc5ccc(Oc6ccccc6)cc5)ccnc4c3)c2)CC1 [TCMDC-138476]
Average inhibition male (%) [1, 3]: -8.7% | % inhibition male (individual replicates) R1 [1, 4]: -12.6% | % inhibition male (individual replicates) R3 [1, 7]: -7.4% | % inhibition male (individual replicates) R4 [1, 5]: -11.7% | HitlevelM [1, 6]: 0 | Average inhibition female (%) [2, 3]: 18.5% | % inhibition female (individual replicates) R1 [2, 4]: 35.6% | % inhibition female (individual replicates) R3 [2, 7]: -5.5% | % inhibition female (individual replicates) R4 [2, 5]: 24.1% | HitlevelF [2, 8]: 0

IC50 ([1]; Plasmodium falciparum, PfDGFA, 24 h incubation with gametocytes before induction, exflagellation readout, read-out: Male IC50): 1.72 µM | IC50 ([2]; Plasmodium falciparum, PfDGFA, 24 h incubation with gametocytes before induction, female gamete readout, read-out: Female IC50): > 10 µM
Compound: O=C(Cc1cccc(O)c1)NCC(Cc1ccc(O)cc1)c1ccccc1 (stereo not shown) [TCMDC-138482]
Selectivity Ratio M ([1]; HepG2 Tox50 versus male IC50): 58.17 | inhibition at 2 µM ([1]; Plasmodium falciparum, 2µM, 24h preincubation with gametocytes, average of replicates, read-out: Average inhibition male (%)): 97.3% | inhibition at 2 µM ([1]; Plasmodium falciparum, 2µM, 24h preincubation with gametocytes, replicate R1, read-out: % inhibition male (individual replicates) R1): 97.5% | inhibition at 2 µM ([1]; Plasmodium falciparum, 2µM, 24h preincubation with gametocytes, replicate R2, read-out: % inhibition male (individual replicates) R2): 95.7% | inhibition at 2 µM ([1]; Plasmodium falciparum, 2µM, 24h preincubation with gametocytes, replicate R3, read-out: % inhibition male (individual replicates) R3): 95.7% | inhibition at 2 µM ([1]; Plasmodium falciparum, 2µM, 24h preincubation with gametocytes, replicate R4, read-out: % inhibition male (individual replicates) R4): 100% | Selectivity ratio F ([2]; HepG2 Tox50 versus female IC50): 10 | inhibition at 2 µM ([2]; Plasmodium falciparum, 2µM, 24h preincubation with gametocytes, average of replicates, read-out: Average inhibition female (%)): 28.1% | inhibition at 2 µM ([2]; Plasmodium falciparum, 2µM, 24h preincubation with gametocytes, replicate R1, read-out: % inhibition female (individual replicates) R1): 32.7% | inhibition at 2 µM ([2]; Plasmodium falciparum, 2µM, 24h preincubation with gametocytes, replicate R2, read-out: % inhibition female (individual replicates) R2): 38.2% | inhibition at 2 µM ([2]; Plasmodium falciparum, 2µM, 24h preincubation with gametocytes, replicate R3, read-out: % inhibition female (individual replicates) R3): 28.5% | inhibition at 2 µM ([2]; Plasmodium falciparum, 2µM, 24h preincubation with gametocytes, replicate R4, read-out: % inhibition female (individual replicates) R4): 13.2%

Compound: COc1cc2nc(N3CCC(CCCC4CCNCC4)CC3)nc(NCc3ccccn3)c2cc1OC.O=C(O)C(F)(F)F [TCMDC-138494]
Average inhibition male (%) [1, 9]: 68.1% | % inhibition male (individual replicates) R1 [1, 10]: 83.7% | % inhibition male (individual replicates) R3 [1, 11]: 75.6% | % inhibition male (individual replicates) R4 [1, 12]: 100.2% | HitlevelM [1, 13]: 3 | Average inhibition female (%) [2, 9]: 59.5% | % inhibition female (individual replicates) R1 [2, 10]: 47.2% | % inhibition female (individual replicates) R3 [2, 11]: 73.7% | % inhibition female (individual replicates) R4 [2, 12]: 83.6% | HitlevelF [2, 14]: 2

Compound: COc1ccc(Cn2c(Nc3cccc(C(F)(F)F)c3)nc3ccc(C(=O)NCCN4CCCC4)cc32)cc1Cl [TCMDC-138531]
Average inhibition male (%) [1, 3]: -2.0% | % inhibition male (individual replicates) R1 [1, 4]: 6.1% | % inhibition male (individual replicates) R3 [1, 7]: 3.4% | % inhibition male (individual replicates) R4 [1, 5]: -8.5% | HitlevelM [1, 15]: 0 | Activity [1, 16]: 0 | Average inhibition female (%) [2, 3]: 9.2% | % inhibition female (individual replicates) R1 [2, 4]: 9.3% | % inhibition female (individual replicates) R3 [2, 7]: -11.0% | % inhibition female (individual replicates) R4 [2, 5]: 18.4% | HitlevelF [2, 17]: 0

Compound: c1ccc(Oc2ccc(Nc3ccnc(Nc4cccc(CNCCCN5CCOCC5)c4)n3)cc2)cc1 [TCMDC-138615]
Average inhibition male (%) [1, 9]: 70.3% | % inhibition male (individual replicates) R1 [1, 10]: 74.9% | % inhibition male (individual replicates) R3 [1, 11]: 61.1% | % inhibition male (individual replicates) R4 [1, 12]: 77.6% | HitlevelM [1, 13]: 4 | Average inhibition female (%) [2, 9]: 19.0% | % inhibition female (individual replicates) R1 [2, 10]: 20.2% | % inhibition female (individual replicates) R3 [2, 11]: 10.9% | % inhibition female (individual replicates) R4 [2, 12]: 5.3% | HitlevelF [2, 14]: 0

Compound: COc1cc2nc(N3CCC(CNC(=O)c4ccc(-c5ccc(C(F)(F)F)cc5)cc4)CC3)nc(N)c2cc1OC [TCMDC-138716]
Average inhibition male (%) [1, 9]: 66.2% | % inhibition male (individual replicates) R1 [1, 10]: 83.5% | % inhibition male (individual replicates) R3 [1, 11]: 34.3% | % inhibition male (individual replicates) R4 [1, 12]: 64.2% | HitlevelM [1, 13]: 3 | Average inhibition female (%) [2, 9]: 47.4% | % inhibition female (individual replicates) R1 [2, 10]: 32.4% | % inhibition female (individual replicates) R3 [2, 11]: 31.5% | % inhibition female (individual replicates) R4 [2, 12]: 42.3% | HitlevelF [2, 14]: 1

Compound: CC(=O)Nc1ccc(Nc2ncc([N+](=O)[O-])c(Nc3ccccc3C(N)=O)n2)cc1.Cl [TCMDC-138731]
% inhibition male (individual replicates) R1 [1, 18]: 16.1% | % inhibition male (individual replicates) R3 [1, 19]: -4.1% | % inhibition male (individual replicates) R4 [1, 20]: 46.2% | Average inhibition male (%) [1, 21]: 19.6% | % inhibition female (individual replicates) R1 [2, 18]: 2.0% | % inhibition female (individual replicates) R3 [2, 19]: 5.4% | % inhibition female (individual replicates) R4 [2, 20]: -11.2% | Average inhibition female (%) [2, 21]: -0.8%
